Data reported in US20010016593A1, “Element giving rapid release of nicotine for transmucosal administration” (priority 1999, published 2001).

Experiments:
[1] = 10 mg tablets swallowed at two hour intervals; cited from earlier work
[2] = cited from earlier work
[3] = cigarette smoking; cited from earlier work
[4] = in vivo; cited from earlier work
[5] = solutions on shaved bellies of cats; cited from earlier work
[6] = pH less than 7; cited from earlier work
[7] = during cigarette smoking; cited from earlier work
[8] = Element placed in the mouth: subjectively reported nicotine pulse sensation; type: in vivo, humans; conditions: equivalent amounts of nicotine
From the text: The experiments of Examples 1-16 above describe the physiological effects of consuming a measured (calculated) dose of nicotine in the manner of the instant invention. Moreover, the inventor has found a distinct physiological and mental sensation associated with the administration of one or more nicotine doses. This is believed to strongly resemble the physiological and mental sensation associated with inhaling a puff of the smoke of burning tobacco, which it is believed have some pleasurable component or consideration thereof on the part of the recipient. There is believed to be some longer-lasting physiological and/or mental satisfaction, or lack of further nicotine effect desire, after one or more administrations of nicotine, just as is the case for most people after smoking a part or all of one or more cigarettes.
The examples as described above are of necessity reported in a subjective manner.

Row | SMILES | effect of swallowed tablets [1] | confusion, memory loss and lack of alertness associated with Alzheimer's disease ([2]; nicotine administration) | local tolerability of the injection ([2]; subcutaneous injection, under some conditions) | discriminative sensitivity and reaction time ([2]; subcutaneous injection, patients with dementia of the Alzheimer type) | time to carry nicotine from the lungs to the brain [3] | mental efficiency, rapid information processing, learning, and vigilance [4] | rate of percutaneous absorption [5] | bucal absorption [6] | arterial levels exceeding venous levels [7] | efficiency of transmucosal administration compared with smoking [8]
1 | CN1CCCC1c1cccnc1.O=C(O)C(O)C(O)C(=O)O (stereo not shown) [nicotine tartrate] | only a small effect | – | – | – | – | – | – | – | – | –
2 | CN1CCCC1c1cccnc1 (stereo not shown) [nicotine] | – | combated the confusion, memory loss and lack of alertness | severe muscular irritation | efficacious in improving discriminative sensitivity and reaction time | less than 20 seconds | improve mental efficiency, rapid information processing, learning, and vigilance | much more rapidly than nicotine salts | very slow | six to ten | not as efficient as smoking
